The source of these data is US20220324770A1, “NITRIFICATION INHIBITORS” (The University of Melbourne, priority 2019, published 2022).

Test [1] deals with Terang soil. The test can be described thus: Soil microcosm incubation (nitrification of applied ammonium), Terang soil. Particulars: for Nitrified NH4+—N (%) Day 3 / Nitrified NH4+—N (%) Day 7 / Nitrified NH4+—N (%) Day 14 / Nitrified NH4+—N (%) Day 28: Terang soil pH 6.5, 25° C., L-DMPP 1.5 mol %; for Nitrified NH4+—N (%) Day 3: compounds 10 mol % of applied N, (NH4)2SO4 100 mg N per kg soil; for Nitrified NH4+—N (%) Day 7 / Nitrified NH4+—N (%) Day 14 / Nitrified NH4+—N (%) Day 28: compounds 10 mol %. As to the method: (§1) The soil used in this study was collected from four different locations in Victoria, Australia: (i) a wheat cropping soil from Horsham (36° 45′S, 142° 07′ E), (ii) a rotational cropping soil from Dahlen (36° 37′S, 142° 09′ E), (iii) a vegetable growing soil from Clyde (38° 08′S, 145° 20′ E), and (iv) a pasture soil from Terang (38° 15′S, 142° 52′E). In addition, a sugarcane cropping soil from South Johnstone in northern Queensland (17° 34′S, 145° 57′ E) was also studied. The water content of the soil was calculated before commencing each experiment, from samples that were oven-dried to constant weight. The soil's water-filled pore space (WFPS) was in the range 52%-61%, which is within the recommended 50-70% range for microbial activity due to oxygen and nutrient availability (Fichtner, T., et al., Applied Sciences, 2019, 9, 496).
(§2) Soil microcosm incubations were carried out in 250 ml polypropylene specimen containers (Sarstedt, Germany), containing 18.24 g oven dry-weight equivalent of soil. Microcosms were re-wetted and pre-incubated at the test temperature for seven days to revive soil microbial activity. Following pre-incubation, the remaining volume to reach the desired water-filled pore spaces (WFPS %) was applied as one of the following treatment solutions; (NH4)2SO4(Control), (NH4)2SO4+DMPP, or (NH4)2SO4+one of Compounds 1-23. Each treatment was applied in triplicate per soil type, so that n=3 at each time point.
(§3) Treatment solutions were prepared such that each microcosm received (NH4)2SO4 at a rate of 100 mg N per kg soil, Compounds 1-23 at 10 mol % of applied N, or DMPP at one of 1.5, 3.6 or 10 mol % of applied N, referred to as L-DMPP, M-DMPP or H-DMPP respectively.
(§4) The microcosms were incubated for 0, 3, 7, 14, 21 or 28 days, where day 0 samples were extracted following 1-hour incubation post-treatment. Soil microcosms were aerated and moisture levels were replenished based on weight loss every few days throughout the incubation period.
(§5) At the end of each incubation period, soil microcosms were destructively sampled by treatment with 2M KCl (100 mL). After shaking for 1 hour, soil-KCl solutions were filtered (Whatman 42) before storing the filtrates at −20° C. until the conclusion of the experiment. All KCl extracts were then analysed by Segmented Flow Analysis (San++, Skalar, Breda, The Netherlands) for the concentration of nitrogen from ammonium (NH4^+—N) and nitrogen from NO3 and NO2 (NOx^−—N) after appropriate dilutions. Results are reported as the mean of three replicates, errors reported are standard errors of the mean.
(§6) Nitrification calculations were performed as previously reported (Aulakh, M., et al., Biology and Fertility of Soils 2001, 33, 258-263; Mahmood, T., et al., Soil Research 2017, 55, 715-722) without correction for the initial baseline concentrations of NH4^+—N or NO3^− N in the untreated soil. For each treatment nitrified NH4^+—N (%) was calculated according to eqn. 1:
(§7) where [NH4^+—N]0 is the NH4^+—N concentration (in mg N kg^−1 soil) of the soil on day 0 and [NH4^+—N]t is the NH4^+—N concentration (in mg N kg^−1 soil) of the soil at a given time point t.

In test [2] the test system is Horsham soil. Description: Soil microcosm incubation (nitrification of applied ammonium), Horsham soil. How it is done:
as §1, §2, §3, §4, §5, §6, §7
(§8) NOx^−—N accumulation rates (mg NOx^−—N/kg soil/day) over the 28-day incubation experiments were calculated for each treatment as in the following (eqn. 2):
(§9) [NOx^−—N]t=0 and [NOx^−—N]t=28 are the combined concentrations of nitrite (NO2) and nitrate (NO3) in the soil (in mg N kg^−1 soil) on day 0 and day 28, respectively.

Test [3] deals with Dahlen soil. Description: Soil microcosm incubation (nitrification of applied ammonium), Dahlen soil. The following applies: for Nitrified NH4+—N (%) Day 3 / Nitrified NH4+—N (%) Day 7 / Nitrified NH4+—N (%) Day 14 / Nitrified NH4+—N (%) Day 21 / Nitrified NH4+—N (%) Day 28: 10 mol %. As to the method:
as §1, §2, §3, §4, §5, §6, §7, §8, §9

Test [4] has as its system South Johnstone soil. Description: Soil microcosm incubation (nitrification of applied ammonium), South Johnstone soil. Particulars: for Nitrified NH4+—N (%) Day 3 / Nitrified NH4+—N (%) Day 7 / Nitrified NH4+—N (%) Day 14 / Nitrified NH4+—N (%) Day 21 / Nitrified NH4+—N (%) Day 28: 10 mol %. As to the method: as §1, §2, §3, §4, §5, §6, §7
Setting [5] is: Horsham soil pH 8.8, 25° C., 10 mol %.
The mark [6] stands for this setting: Horsham soil pH 8.8, 35° C., 10 mol %.
[7] abbreviates: Table 4, Dahlen soil pH 7.3, 25° C.
[8] abbreviates: Table 4, Dahlen soil pH 7.3, 35° C.
Setting [9] is: South Johnstone soil pH 5.0, 25° C.
Setting [10] is: South Johnstone soil pH 5.0, 35° C.

As to `CCCCc1cn(CCCC)nn1` [Compound 2, 1,4-butyl-1H-1,2,3-triazole], the “Nitrified NH4+—N (%) Day 3” value is given as 27.2 ± 2.0% in test [1]; 12.2 ± 8.6% in test [2] (Horsham soil pH 8.8, 25° C., inhibitors 10 mol % of applied N); −3.3 ± 5.9% in test [2] (setting [6]); 7.5 ± 5.2% in test [3] (setting [7]); 1.7 ± 3.3% in test [3] (setting [8]). The “Nitrified NH4+—N (%) Day 7” value is 64.8 ± 2.3% in test [1]; 17.9 ± 6.9% in test [2] (setting [5]); 8.8 ± 5.5% in test [2] (setting [6]); 21.2 ± 12.2% in test [3] (setting [7]); −1.3 ± 1.9% in test [3] (setting [8]). The “Nitrified NH4+—N (%) Day 14” value in test [1] is on record as 95.6 ± 2.8%; in test [2] (setting [5]) it was 44.5 ± 7.2%; in test [2] (setting [6]), 40.3 ± 5.4%; in test [3] (setting [7]), 20.3 ± 21.6%; in test [3] (setting [8]) it was 2.0 ± 2.4%. Further, the “Nitrified NH4+—N (%) Day 28” value was 100 ± 2.7% in test [1]; 90.4 ± 9.7% in test [2] (setting [5]); 71.6 ± 22.9% in test [2] (setting [6]); 37.6 ± 11.0% in test [3] (setting [7]); 22.4 ± 1.5% in test [3] (setting [8]). In addition, the “Nitrified NH4+—N (%) Day 21” value in test [2] (setting [5]) is given as 66.6 ± 8.9%; in test [2] (setting [6]), 53.8 ± 9.4%; in test [3] (setting [7]), 32.9 ± 18.4%; in test [3] (setting [8]) it was 29.6 ± 3.6%. The “retaining NH4+ vs uninhibited control treatment” value in test [2] (Horsham soil, 25° C., after 28 days) was “to a lesser extent”. Also, the “NOx−—N accumulation: effect of temperature (25° C. vs 35° C.)” value in test [2] (Horsham soil, 28-day incubation) was “lower at the elevated temperature”. In addition, the “nitrification rates vs uninhibited control treatment” value in test [2] (Horsham soil, 35° C.) is on record as “lower nitrification rates than the uninhibited control treatment”. In addition, in test [3] (Dahlen soil, 25° C., after 28 days), the “retaining NH4+—N vs uninhibited control treatment and DMPP” value was “performed statistically better”. Also, the “retaining NH4+ vs both DMPP treatment and control treatment” value in test [3] (Dahlen soil, 35° C., after 28 days) is “performed statistically better”.

In the case of `CCCCc1cn(CC(=O)OCC)nn1` [Compound 3, 4-Butyl-1H-1,2,3-Triazole-1-Acetic Acid Ethyl Ester], the “Nitrified NH4+—N (%) Day 3” value was 15.6 ± 3.0% in test [1]; −6.3 ± 0.7% in test [4] (South Johnstone soil pH 5.0, 25° C., negative = NH4+—N higher than day 0 (mineralisation)); −11.8 ± 1.5% in test [4] (setting [10]). Moreover, the “Nitrified NH4+—N (%) Day 7” value is 29.4 ± 2.6% in test [1], −7.9 ± 0.9% in test [4] (setting [9]) and −26.2 ± 1.5% in test [4] (setting [10]). The “Nitrified NH4+—N (%) Day 14” value is reported as 47.8 ± 3.5% in test [1], −12.7 ± 0.7% in test [4] (setting [9]) and −34.8 ± 0.6% in test [4] (setting [10]). Besides, the “Nitrified NH4+—N (%) Day 28” value was 99.9 ± 2.8% in test [1]; −12.8 ± 0.8% in test [4] (South Johnstone soil pH 5.0, 25° C., day 28); −18.6 ± 2.3% in test [4] (South Johnstone soil pH 5.0, 35° C., day 28). In test [1] (Terang soil, 25° C.), the “retaining NH4+—N in the soil compared with the fertilised control” value is reported as “most effective treatments”. Further, the “Nitrified NH4+—N (%) Day 21” value is on record as −13.9 ± 0.9% in test [4] (setting [9]) and −28.3 ± 1.4% in test [4] (setting [10]). In test [4] (South Johnstone soil, 25° C., day 28), the “effectiveness compared to treatment with DMPP (higher NH4+—N, lower NOx−—N)” value is given as “statistically higher effectiveness”. The “retaining NH4+—N vs DMPP” value in test [4] (South Johnstone soil, 35° C.) is recorded as “performed statistically better than DMPP”. Also, in test [4] (South Johnstone soil, 35° C., day 28), the “retaining NH4+—N and slowing NOx−—N growth vs fertilised control” value is “performed statistically better than the fertilised control”.
